Reference: patent US9365830B2, “Agents and methods for inhibiting human pluripotent stem cell growth” (VIACYTE, INC., priority 2010, dated 2016)

Columns and labels:
[1] = test system: OCT4-positive cells in Stage 1 differentiations of hES cells; experiment: Plating assay for depletion of OCT4-positive cells in Stage 1 suspension aggregates, OCT4 immunostaining; format: cell-based, human; details: treated day 1 to 2 of Stage 1 at EC50 concentration; plated 24 hours in hESC medium; vs untreated or DMSO
Procedure: Human ES cell suspension aggregates were formed in rotational culture as described previously and differentiated through Stage 1 (definitive endoderm). About 20-30 aggregates were then plated per well in 4-well tissue culture dishes coated with MATRIGEL· diluted 1:200, and cultured for 24 hours in hESC medium (DMEM/F12, 10% XF-KSR, 10 ng/mL Activin A and 10 ng/mL Heregulin). This approach was intended to increase the contrast in OCT4 expression between undifferentiated hESCs and cells committed to differentiation. […] Stated in another way, mixed population cell cultures in hESC medium would potentially support expansion/proliferation of residual undifferentiated (hESCs), thereby show increased OCT4 gene expression, as compared to cells committed to differentiation, which would have decreased of OCT4 gene expression. Plated aggregates were immunostained for OCT4 protein and counterstained with DAPI, a nuclear stain (FIG. 12). The cell aggregates that were plated had flattened and spread out within a 24-hour period; while the centers of the aggregates were still domed. […] Brightly staining OCT4-positive cells were easily identified and distinguishable from the majority of OCT4 negative cells. OCT4-positive cells were generally found in clusters and most often within the domed area of a plated aggregate. […] Smaller aggregates residing in a larger aggregate may occur as a result of the initial stages of rotational culture, or the aggregation process, during which small clusters (primary aggregates) form initially. Aggregation of two or more primary aggregates likely leads to the formation of larger secondary aggregates, which can be 100-150 μm in diameter. Thus, it is possible that any single clusters of OCT4-positive cells exist at the center of a primary aggregate and resist differentiation. Such clusters would remain substantially undifferentiated and stain OCT4-positive. One hypothesis is that primary aggregates are specified to differentiation relative to their positioning in primary and secondary aggregates. For example, FIGS. 12A through 12E show a representative series of images, from small (primary) (e.g. FIGS. 12A and 12B) and larger (secondary) (e.g. FIGS. 12C-12E) plated aggregates containing OCT4-positive clusters (dark circles).
Depletion of OCT4-positive cells during Stage 1 differentiation was examined using the plating assay described above. Stage 1 differentiations of hES cells were treated from day 1 to 2 with the candidate compounds as described in Example 2 (chelerythrine chloride, caffeic acid and Ivermectin), at their EC50 concentrations for hES cells. Plated untreated and DMSO-treated aggregates were indistinguishable, and both contained discrete clusters of OCT4-positive cells. See FIG. 13A top and bottom panels for a DMSO treated example. The intensity of OCT4-positive staining in differentiating aggregate cell cultures treated with DMSO (control) was equivalent to undifferentiated hES cells.
Additional experiments were performed using higher concentrations of compounds and extended effects of the compounds in cell culture plated aggregates in hESC medium for 24 or 72 hours before staining (FIGS. 15 and 16). […] Another group of Stage 1 differentiating cultures were processed in parallel, but treated with 10 μm chelerythrine chloride.

hESCs (BG02) = experiment: Real-time impedance assay (RT-CES) for inhibitory and cytotoxic agents on hESCs; details: 10 μM compound added after about 24 hours, cultured about 5 more days; compared to DMSO control
Description: The foregoing 176 selected compounds from the complete LOPAC1280™ library were then used to screen human pluripotent stem cells, e.g., hESCs, and differentiating cultures during Stage 1 (definitive endoderm) using a real-time impedance assay (ACEA biosciences RT-CES system). The RT-CES system uses 96-well trays that contain embedded microsensors to monitor changes in electrical impedance, which is translated into a measure of cell index. Any overt alteration within a cell culture can be detected, including but not limited to cell proliferation, migration, cell spreading, apoptosis, differentiation and the like. […] An increase in the cell index indicates proliferation of the cells, for example, proliferation of the undifferentiated cells. […] See also FIG. 1. […] A “scallop” cell index is one which remains high due to a confluent culture of cells, but will go down and up (scallop) between daily feedings. Conversely, cells undergoing differentiation have distinctive patterns, such as peaks and troughs in the cell index, potentially indicative of an epithelial-to-mesenchymal transition, flattening, cell migration, apoptosis or similar differentiation and growth related changes.
Impedance Assay for Inhibitory and Cytotoxic Agents. Human pluripotent stem cells, e.g., 2×10^4 hESCs (BG02), were cultured in DC-HAIF, a heregulin-based defined media, with daily feeding in the impedance monitoring plates. After about 24 hours, and 10 μM of the selected LOPAC1280™ compound was added to each well (see arrowhead in FIGS. 3 A & B) and cultured for about an additional 5 days.

Row | Compound | intensity for OCT4 staining [1] | cell index (impedance); inhibitory or cytotoxic effect on the hESCs (hESCs (BG02))
1 | 22, 23-dihydroavermectin B1a+22,23-dihydroavermectin B1b [Ivermectin] | significantly decreased | 
2 | CN(N=O)c1cc(O)ccc1O [Dephostatin] |  | significant decrease
3 | N#C/C(=C\c1ccc(O)c(O)c1)C(=O)NCc1ccccc1 [Tyrphostin AG 490] |  | significant decrease
